Patent US7803930B2, “Antisense modulation of apolipoprotein B-expression” (Isis Pharmaceuticals, Inc., priority 2002, dated 2010)

Columns and labels:
[1] = system: mouse apolipoprotein B protein; experiment: High fat fed mice (Example 51): serum apolipoprotein B protein, immunoblot; format: in vivo; settings: high fat fed C57Bl/6 mice; 50 mg/kg i.p. twice weekly
Excerpt: Furthermore, at 1, 2, 3 and 4 weeks of treatment, a inverse correlation between inhibition of target mRNA and cholesterol levels (total, HDL and LDL) is observed, with cholesterol levels lowering as percent inhibition of apolipoprotein B mRNA becomes greater. Serum samples were subjected to immunoblot analysis using an antibody to detect mouse apolipoprotein B protein (Gladstone Institute, San Francisco, Calif.).

[2] = Lean mice, 6 weeks (Example 66): serum lipids and liver enzymes; format: in vivo, mouse; settings: for HDL-cholesterol / LDL-cholesterol / Liver Enzymes ALT / Liver Enzymes AST / Total cholesterol / Triglycerides: serum
Experimental: (§1) The accumulation of lipids in liver tissue was also evaluated in lean mice. Male […] mice (Charles River Laboratories (Wilmington, Mass.) at 6 to 7 weeks of age were maintained on a standard rodent diet and were treated twice weekly with intraperitoneal injections of 25 or 50 mg/kg 147764 (SEQ ID NO: 109) or 147483 (SEQ ID NO: 79) for 6 weeks. Saline treated animals served as controls. Each treatment group was comprised of 4 animals. Animals were sacrificed after the 6 week treatment period, at which point liver tissue and serum were collected.
Total cholesterol, LDL-cholesterol, HDL-cholesterol and triglycerides in serum were measured by routine clinical analysis using an Olympus Clinical Analyzer (Olympus America Inc., Melville, N.Y.). The liver enzymes ALT and […] in serum were also measured using the Olympus Clinical Analyzer.

apolipoprotein B mRNA = experiment: Lean mice, 6 weeks (Example 66): apolipoprotein B mRNA; format: in vivo, mouse
Experimental: as §1
Apolipoprotein B mRNA levels were measured by real-time PCR as described by other examples herein. The data, shown in Table 51, represent the average of 4 animals and are presented as inhibition relative to saline treated controls.

[3] = Transgenic mice dosing study (Example 52): serum ALT and AST levels; format: in vivo, mouse; settings: 10 or 25 mg/kg
[4] = Long-term study in lean Cynomolgous monkeys (Example 64): toxicity (steatosis, APTT, histology, kidney); format: in vivo, Cynomolgous monkey
Experimental: Male and female Cynomologous monkeys are treated with 2, 4 or 12 mg/kg of ISIS 301012 intravenously or 2 or 20 mg/kg subcutaneously at a frequency of every two days for the first week, and every 4 days thereafter, for 1 and 3 month treatment periods. Saline-treated animals serve as controls. Each treatment group includes 2 to 3 animals of each sex.
At a one month interval and at the 3 month study termination, the animals are sacrificed and evaluated for target expression in liver, lipid levels in serum and indicators of toxicity. Liver samples are procured, RNA is isolated and apolipoprotein B mRNA expression is measured by real-time PCR as described in other examples herein. Serum lipids, including total cholesterol, LDL-cholesterol, HDL-cholesterol and triglycerides, are evaluated by routine clinical analysis using an Olympus Clinical Analyzer (Olympus America Inc., Melville, N.Y.). Ratios of LDL-cholesterol to HDL-cholesterol and total cholesterol to HDL-cholesterol are also calculated. Analyses of serum ALT and AST, inflammatory infiltrates in tissue and basophilic granules in tissue provide an assessment of toxicities related to the treatment. Hepatic steatosis, or accumulation of lipids in the liver, is assessed by routine histological analysis with oil red 0 stain and measurement of liver tissue triglycerides using a Triglyceride GPO Assay (Sigma-Aldrich, St. Louis, Mo.).
Hepatic steatosis, or accumulation of lipids in the liver, was not observed following 4 weeks of treatment with the doses indicated.

[5] = Long-term study in lean CD-1 mice (Example 63): serum lipids and indicators of toxicity (ALT, AST, histology, steatosis); format: in vivo, mouse; settings: one month
Experimental: In accordance with the present invention, the toxicity of ISIS 301012 (SEQ ID NO: 247) is investigated in a long-term, 3 month study in mice. Two-month old male and female CD-1 mice (Charles River Laboratories, Wilmington, Mass.) are dosed with 2, 5, 12.5, 25 or 50 mg/kg of ISIS 301012 twice per week for first week, and every 4 days thereafter. The mice are maintained on a standard rodent diet. Saline and control oligonucleotide animals serve as controls and are injected on the same schedule. Each treatment group contains 6 to 10 mice of each sex, and each treatment group is duplicated, one group for a 1 month study termination, the other for a 3 month study termination. After the 1 or 3 month treatment periods, the mice are sacrificed and evaluated for target expression in liver, lipid levels in serum and indicators of toxicity. Liver samples are procured, RNA is isolated and apolipoprotein B mRNA expression is measured by real-time PCR as described in other examples herein. Serum lipids, including total cholesterol, LDL-cholesterol, HDL-cholesterol and triglycerides, are evaluated by routine clinical analysis using an Olympus Clinical Analyzer (Olympus America Inc., Melville, N.Y.). Ratios of LDL-cholesterol to HDL-cholesterol and total cholesterol to HDL-cholesterol are also calculated. Analyses of serum ALT and AST, inflammatory infiltrates in tissue and basophilic granules in tissue provide an assessment of toxicities related to the treatment. Hepatic steatosis, or accumulation of lipids in the liver, is assessed by routine histological analysis with oil red 0 stain and measurement of liver tissue triglycerides using a Triglyceride GPO Assay (Sigma-Aldrich, St. Louis, Mo.).
The toxicity study also includes groups of animals allowed to recover following cessation of oligonucleotide treatment. Both male and female CD-1 mice (Charles River Laboratories, Wilmington, Mass.) are treated with 5, 10, 50 mg/kg of ISIS 301012 twice per week for the first week and every 4 days thereafter. Saline and, control oligonucleotide injected animals serve as controls. Each treatment group includes 6 animals per sex. After 3 months of treatment, animals remain untreated for an additional 3 months, after which they are sacrificed. The same parameters are evaluated as in the mice sacrificed immediately after 3 months of treatment.
Additionally, the expected dose-response toxicities were observed. ALT and AST levels, measured by routine clinical procedures on an Olympus Clinical Analyzer (Olympus America Inc., Melville, N.Y.), are increased in mice treated with 25 or 50 mg/kg of ISIS 301012. Tissues were prepared for analysis by routine histological procedures.

[6] = 25 or 50 mg/kg i.p. twice weekly

For “GTCCCTGAAGATGTCAATGC (2'-MOE gapmer, further chemistry not given here) [ISIS 147764]”, the “apolipoprotein B protein in serum (immunoblot)” value [1] was “markedly reduced within 48 hours”, the “serum lipids relative to saline-treated control animals” value [2, 6] was “lowers serum lipids” and the HDL-cholesterol ([2]; 25 mg/kg i.p. twice weekly) was 79 mg/dL. The LDL-cholesterol ([2]; 25 mg/kg i.p. twice weekly) was 29 mg/dL, the “Liver Enzymes ALT” value ([2]; 25 mg/kg i.p. twice weekly) was 47 IU/L and the “Liver Enzymes AST” value ([2]; 25 mg/kg i.p. twice weekly) was 81 IU/L. It also gave a Total cholesterol ([2]; 25 mg/kg i.p. twice weekly) of 114 mg/dL, a Triglycerides ([2]; 25 mg/kg i.p. twice weekly) of 80 mg/dL and an HDL-cholesterol ([2]; 50 mg/kg i.p. twice weekly) of 38 mg/dL. The LDL-cholesterol ([2]; 50 mg/kg i.p. twice weekly) was 18 mg/dL, the “Liver Enzymes ALT” value ([2]; 50 mg/kg i.p. twice weekly) was 48 IU/L and the “Liver Enzymes AST” value ([2]; 50 mg/kg i.p. twice weekly) was 101 IU/L. The Total cholesterol ([2]; 50 mg/kg i.p. twice weekly) was 57 mg/dL, the Triglycerides ([2]; 50 mg/kg i.p. twice weekly) was 30 mg/dL and the “% Inhibition apolipoprotein B mRNA” value (apolipoprotein B mRNA; 25 mg/kg i.p. twice weekly) was 48%. The “% Inhibition apolipoprotein B mRNA” value (apolipoprotein B mRNA; 50 mg/kg i.p. twice weekly) was 77% and the “inhibition of apolipoprotein B mRNA expression” value (apolipoprotein B mRNA; [6]) was “in a dose-dependent manner”.
For “ISIS 301012: SEQ ID NO: 247, antisense oligonucleotide targeted to human apolipoprotein B (antisense GCCTCAGTCTGCTTCGCACC; chemistry not given here)”, the “AST and ALT levels in serum” value [3] was “increased, yet did not exceed normal levels”, the “functional changes in kidney” value [4] was “No functional changes” and the Hepatic steatosis ([4]; 4 weeks of treatment) was “not observed”. The dose-related histological findings ([4]; 12 and 20 mg/kg) was “basophilic granules in the liver and kidney”, the “transient increase in activated partial thromboplastin time (APTT)” value ([4]; 12 and 20 mg/kg, during the first 4 hours) was 1.2-1.3 fold and the “ALT and AST levels” value ([5]; 25 or 50 mg/kg) was “increased”. For the same substance, the “doses at which basophilic granules in liver and kidney tissue were observed” value [5] was “above 12.5 mg/kg”, the “doses at which mild lymphohistiocytic infiltrates were observed in various tissues” value [5] was “above 12.5 mg/kg” and the “steatosis (oil red O staining)” value [5] was “no steatosis”.
